Reference: PMC11206507, “Unraveling the Impact of Six Pentacyclic Triterpenes Regulating Metabolic Pathways on Lung Carcinoma Cells” (Pharmaceuticals, 2024)
Read-outs that look alike come from different tables or passages of the source.

What was measured:
[1] = test system: NSCLC A549 cells; test: MTS/PMS cell viability, A549; assay type: cell-based, human; on TI > 1: key: '✔' means induction; '-' means non-induction of any of the tested processes
Experimental: A similar procedure was performed to determine the IC50 of the triterpenes in a normal lung fibroblast cell line (MRC5). In brief, the A549 and MRC5 cells were seeded into 96-well plates at a density of 1 × 10^5 cells/mL in supplemented DMEM medium. […] Then, 10 uL of the MTS reagent from the CellTiter 96® Aqueous Non-Radioactive Cell Proliferation Assay (Promega G5421) was added to each well. Then, we incubated the plates at 37 °C and in a 5% CO2 atmosphere for 1 h. After incubation, the absorbance was measured at 492 nm (n = 8) in a microplate reader spectrophotometer (Thermoscientific Multiskan FC). The cell viability was calculated as follows:% Viability = (sample absorbance − sample media absorbance)/(untreated cells’ absorbance − untreated cells’ media absorbance) × 100
(§1) The cell viability data were presented by plotting the values with an average of eight measurements for each treatment (mean ± SD) in at least three independent experiments. The IC50 values were calculated with the GraphPad Prism 9 software (Prism 9; GraphPad by Dotmatics, San Diego, CA, USA) using the dose–response curve.

[2] = MTS/PMS cell viability, MRC5; assay type: cell-based; settings: human, MRC5 normal lung fibroblast cells
Experimental: The 50% inhibitory concentration (IC50) of some of these triterpenes in A549 NSCLC cells were previously determined by us. A similar procedure was performed to determine the IC50 of the triterpenes in a normal lung fibroblast cell line (MRC5). In brief, the A549 and MRC5 cells were seeded into 96-well plates at a density of 1 × 10^5 cells/mL in supplemented DMEM medium. The cells were treated with specific concentrations (A549: 5, 10, 25, 50, 75, 100, 125,150, 175, 200 μM; MRC5: 5, 10, 25, 50, 75, 100 μM) of the triterpenes and incubated for 24 h. Then, 10 uL of the MTS reagent from the CellTiter 96® Aqueous Non-Radioactive Cell Proliferation Assay (Promega G5421) was added to each well. Then, we incubated the plates at 37 °C and in a 5% CO2 atmosphere for 1 h. After incubation, the absorbance was measured at 492 nm (n = 8) in a microplate reader spectrophotometer (Thermoscientific Multiskan FC). The cell viability was calculated as follows:% Viability = (sample absorbance − sample media absorbance)/(untreated cells’ absorbance − untreated cells’ media absorbance) × 100
as §1, with “curve. The data were normalized by the non-linear fit of the log (drug inhibition) vs. normalized response variable slope to obtain the best fit IC50 and R-squared values.” for “curve.”

[3] = test system: RRM1 gene; test: RT-qPCR gene expression of ribonucleotide reductase M1; assay type: cell-based, human
Experimental: (§2) A549 cells were seeded into 6-well plates at a density of 1 × 10^6 cells/mL in supplemented DMEM. The cells were incubated with the triterpenes (IC25) for 24 h. Total RNA was extracted from the cells using the TRIzol reagent (Invitrogen Corporation, Carlsbad, CA, USA) according to the manufacturer’s instructions. The purity and concentration of RNA were assessed using a NanoDrop spectrophotometer (Thermo Fisher Scientific). cDNA was synthesized using the High-Capacity cDNA Reverse Transcription Kit (Applied Biosystems) according to the manufacturer’s instructions.
RT-qPCR was performed on a StepOnePlus® Real-Time PCR System (Thermo Fisher Scientific) using TaqMan Gene Expression Assays (Applied Biosystems) for PDL1 (CD274; Assay ID: Hs01125297_m1), ribonucleotide reductase (RR) M1 (Assay ID: Hs01040697_m1), and STAT3 (Assay ID: Hs01047586_g1). Each reaction consisted of 10 ng of cDNA, TaqMan Gene Expression Master Mix (Applied Biosystems), and TaqMan probes. The PCR cycling conditions were as follows: 95 °C for 10 min, followed by 40 cycles of 95 °C for 15 s and 60 °C for 60 s. The relative gene expression levels were calculated using the ΔΔCt method. […]
All RT-qPCR experiments were performed at least in triplicate. All data were expressed by plotting values with an average of four measurements for each treatment condition as the mean ± SD and analyzed with the software GraphPad Prism 9. […]

[4] = test system: A549 cells; test: Mitochondrial ROS production assay (DHE, flow cytometry); assay type: cell-based, human; settings: A549, IC25, 24 h; group average
Experimental: (§3) We used flow cytometry to analyze several cellular mechanistic pathways in A549 cells after incubation with the triterpenes. In general, the cells were seeded in a 6-well plate at a density of 1 × 10^6 cells/mL and incubated for 24 h in supplemented DMEM. After 24 h, the A549 cells were treated with the triterpenes, following each manufacturer’s protocol. All of the following experiments were performed in a Muse® Cell Analyzer (EMD Millipore Corporation, Temecula, CA). The instrument was calibrated before each assay using the Muse® System Check Kit (Luminex MCH100101, Luminex Corporation). Each assay was run at least in two independent experiments. For each experiment, all samples were analyzed in triplicate in the instrument and the capillary line was washed after each sample run to avoid artifacts. In addition, to address the issue of cell doublets, we used the Muse® Cell Dispersal Reagent (Luminex Corporation) in all experiments. The concentration of the triterpenes in each assay was selected depending on the cellular concentration necessary to generate the gain signal in the instrument. This means that we attempted to select concentrations avoiding excessive cytotoxicity to accurately determine the respective signal from each assay.
The production of reactive oxygen species (ROS) by mitochondria was determined using the Oxidative Stress Kit (Luminex MCH100111, Luminex Corporation). After the A549 cells were treated with the triterpenes (IC25) for 24 h, the cells were scraped and centrifuged. For ROS, the cell pellet was incubated with dihydroethidium (DHE) dye for 1 h at 37 °C.

[5] = test system: LC3-II; test: Autophagy induction assay (LC3 antibody, flow cytometry); assay type: cell-based, human; settings: for Autophagic response (in words): A549, IC25, 24 h, vs controls (untreated ratio 0.8, starving ratio 1)
Experimental: as §3
The Muse® Autophagy LC3 Antibody-Based Kit (Luminex MCH200109, Luminex Corporation) was used to determine autophagy activation by monitoring lipidated LC3-II. After the A549 cells were treated with the triterpenes (IC25) for 24 h, autophagy reagent A was added for 4 h to prevent the lysosomal degradation of LC3-II. Then, the cells were detached and centrifuged. The pellet was suspended and incubated for 30 min in the autophagy reagent B containing anti-LC3-II mouse monoclonal antibody. Finally, the cell pellet was washed and suspended in fresh assay buffer for measurement. The autophagy response was calculated using the following formula:
Autophagy ratio = mean autophagy value of treated or untreated cells/mean autophagy value of starving cells.
The starving cells were labeled ‘No supp’ as non-supplemented cells. These served as the positive signal for autophagy and were designated a ratio of 1 since they were compared to themselves. A ratio ≥1 indicates the activation of the autophagic response.

[6] = test system: MAPK/PI3K; test: MAPK/PI3K protein expression (dual pathway activation kit, flow cytometry); assay type: cell-based, human; settings: for MAPK/PI3K expression (in words): A549, IC25, 24 h, vs untreated cells; for MAPK/PI3K inhibition: summary, NSCLC A549 cells; on MAPK/PI3K inhibition: key: '✔' means induction; '-' means non-induction of any of the tested processes
Experimental: as §3
The Muse® P13K/MAPK Dual Pathway Activation Kit (Luminex MCH200108, Luminex Corporation) was used to determine MAPK/PI3K expression. After the incubation treatment with the triterpenes (IC25) for 24 h, the A549 cells were scraped, centrifuged, and washed once with 1× PBS. Next, the fixation buffer was incubated for 10 min and then the permeabilization buffer for another 10 min. Both incubations were performed on ice. Later, the antibody cocktail containing anti-phospho-Akt and anti-phospho-ERK1/2 was incubated for 30 min. Afterward, the cell pellet was washed and suspended in fresh assay buffer for measurement.

[7] = test system: STAT3 gene; test: RT-qPCR gene expression of STAT3; assay type: cell-based, human
Experimental: as §2
(§4) RT-qPCR was performed on a StepOnePlus® Real-Time PCR System (Thermo Fisher Scientific) using TaqMan Gene Expression Assays (Applied Biosystems) for PDL1 (CD274; Assay ID: Hs01125297_m1), ribonucleotide reductase (RR) M1 (Assay ID: Hs01040697_m1), and STAT3 (Assay ID: Hs01047586_g1). Each reaction consisted of 10 ng of cDNA, TaqMan Gene Expression Master Mix (Applied Biosystems), and TaqMan probes. The PCR cycling conditions were as follows: 95 °C for 10 min, followed by 40 cycles of 95 °C for 15 s and 60 °C for 60 s. The relative gene expression levels were calculated using the ΔΔCt method. GAPDH (Assay ID: Hs02758991_g1) was used as the endogenous control for normalization.
(§5) All RT-qPCR experiments were performed at least in triplicate. All data were expressed by plotting values with an average of four measurements for each treatment condition as the mean ± SD and analyzed with the software GraphPad Prism 9. Statistical analysis was performed using one-way analysis of variance (ANOVA) to compare the mean value of each treated type of cells versus the control (untreated cells). The statistical significance defined by the software for p values was **** < 0.0001, *** from 0.001 to 0.0001, ** from 0.001 to 0.01, * from 0.01 to 0.05, and non-significant (ns) ≥ 0.05.

[8] = test system: NSCLC A549 cells; set-up: method as in PMID 31338398; settings: cited from earlier work; for IC50: 24 h, MTS/PMS, already obtained by the authors; for Cytotoxicity in A549 cells at the highest concentration: 100 μM
[9] = test system: A549 cells; test: Total ROS production assay (DCF); assay type: cell-based, human; settings: A549, IC25 (CisPt 25 μM), 24 h
Experimental: The production of total ROS was determined using the 2′,7′-dichlorodihydrofluorescein diacetate (DCF) fluorescent dye. A549 cells were seeded in a concentration of 1 × 10^5 cells/mL into black 96-well plates with a clear bottom. After 24 h, the cells were incubated with the triterpenes (IC25) and controls for 24 h. Then, 50 μL of DCF (10 μM) was added to each well and they were incubated for 1 h at room temperature. Then, the fluorescence of each well was measured (Ex/Em = 485/530 nm) in the Tecan® M200 plate reader.
This experiment was performed in triplicate. All data were expressed by plotting the values as an average of three measurements for each treatment condition as the mean ± SD and analyzed with the software GraphPad Prism 9. Statistical analysis was performed using one-way analysis of variance (ANOVA) to compare the mean value of each treated type of cells versus the control (untreated cells). The statistical significance defined by the software for p values was **** < 0.0001, *** from 0.001 to 0.0001, ** from 0.001 to 0.01, * from 0.01 to 0.05, and non-significant (ns) ≥ 0.05.

[10] = test system: PDL1 gene; test: RT-qPCR gene expression of PDL1; assay type: cell-based, human; settings: A549, IC25 (CisPt 25 μM), 24 h
Experimental: as §2, §4, §5

[11] = test system: DNA damage machinery in A549 cells; test: DNA damage assay (anti-pH2AX / anti-pATM, flow cytometry); assay type: cell-based, human; settings: A549, IC50, 24 h, vs untreated cells
Experimental: as §3
Then, the A549 cells were scraped and centrifuged. The pellet was suspended in the assay buffer from the Luminex MCH200107 kit (Luminex Corporation). […]

| Structure (SMILES) | IC50 at 24 h [2] [µM] | Autophagic response (in words) [5] | MAPK/PI3K expression (in words) [6] | MAPK/PI3K inhibition [6] | IC50 [8] [µM] | Cytotoxicity in A549 cells at the highest concentration [8] | other results |
| --- | --- | --- | --- | --- | --- | --- | --- |
| CC1(C)CC[C@]2(C(=O)O)CC[C@]3(C)C(=CC[C@@H]4[C@@]5(C)CC[C@H](O)C(C)(C)[C@@H]5CC[C@]43C)[C@@H]2C1 [OleA, oleanolic acid] | 86 ± 2 | inhibit the LC3-II activity | did not affect the expression of MAPK/PI3K | - | 43 ± 5 |  | TI [1]: 2; RRM1 gene expression (in words) ([3]; A549, IC25, 24 h, vs untreated cells): did not downregulate RR; RRM1 downregulation ([3]; summary, NSCLC A549 cells): -; Amount of mROS, on average of the three named triterpenes, compared to the untreated cells [4]: 26.2%; STAT3 gene expression (in words) ([7]; A549, IC25, 24 h): did not inhibit; STAT3 downregulation ([7]; summary, NSCLC A549 cells): - |
| CC[C@H](CC[C@@H](C)[C@H]1CC[C@H]2[C@@H]3CC=C4C[C@@H](O)CC[C@]4(C)[C@H]3CC[C@]12C)C(C)C [β-sitosterol, reference compound] |  |  |  |  |  | did not kill A549 cells |  |
| N.N.[Cl][Pt][Cl] [CisPt, cis-diamminedichloroplatinum (II), reference compound] |  |  |  |  |  |  | Total ROS production (in words) [9]: not statistically significant; PDL1 gene expression (in words) [10]: clearly upregulated PDL1 |
| C[C@H]1[C@H](C)CC[C@]2(C(=O)O)CC[C@]3(C)C(=CC[C@@H]4[C@@]5(C)C[C@@H](O)[C@H](O)[C@@](C)(CO)[C@@H]5CC[C@]43C)[C@H]12 [AsA, asiatic acid] | 38 ± 2 | induced an autophagic response similar to that of CisPt | did not affect the expression of MAPK/PI3K | - | 59 ± 6 |  | TI ([1]; TI = MRC5 IC50/A549 IC50, >1 means higher selectivity): 0.64; TI > 1 ([1]; summary, MRC5 vs A549): -; Activation of the DNA damage machinery (in words) [11]: caused the activation of the DNA damage machinery; Autophagy inhibition ([5]; summary, NSCLC A549 cells): - |
| CC(C)CCC[C@@H](C)[C@H]1CC[C@H]2[C@@H]3CC=C4C[C@@H](O)CC[C@]4(C)[C@H]3CC[C@]12C [cholesterol, reference compound] |  |  |  |  |  | did not kill A549 cells |  |
